On the set-up of series [1]: method as in earlier work. Conditions: rodents; tissue-to-plasma distribution ratios (Kp) indicating substantial binding to tissue components; ref 16 (ARV-110), ref 17 (A947); cited from earlier work.
The test system of the next series is Caco-2 monolayer. Description: Caco-2 A-B passive permeability with preincubation, transporter-inhibited. Type of series: in vitro ADME. Conditions: recovery from donor and receiver compartments, 0-120 min. As to the method:
(§1) Transepithelial transport of the compounds through a Caco-2 monolayer (ATCC, HTB-37) was determined in 14–18 days old monolayers in Costar 24-well cell culture cluster plates (polycarbonate membrane, 0.4 μm pore size). Chamber volumes were 200 and 800 μL on the apical and basolateral sides of the cell monolayers, respectively, and all incubations were performed with prewarmed buffers in an orbital shaking incubator at 480 rpm and 37 °C. Prior to the assay, cells were washed with HBSS supplemented with 25 mM HEPES (HBSS-HEPES), pH 7.4, to remove the culture medium. After 15 min of equilibration, the transepithelial electrical resistance (TEER) was determined to assess acceptance of the cell plates into the assay. A second measurement and a lucifer yellow leakage determination was carried out after performing all the transport experiments to monitor integrity of the cell monolayers throughout the study.
(§2) Before the permeability study, to minimize nonspecific binding of PROTACs to the cells and plates, the cells were preincubated with 10 μM compound solution on the apical (donor) side for 1 h, analogous to Muschong et al. Then, cells were washed twice with HBSS-MES pH 6.5 containing 1% BSA. Then, permeability in the absorptive direction (A–B, apical-to-basolateral) was studied over 120 min at a 10 μM test compound concentration. The compound solutions were freshly prepared from DMSO stock solutions diluted into HBSS supplemented with 25 mM MES, pH 6.5, containing efflux inhibitors (50 μM quinidine, 30 μM benzbromarone, and 20 μM sulfasalazine); the final solvent concentration was always 0.5%.
(§3) Samples from the donor side (10 μL) were drawn immediately after the addition of the test compound and after 45 and 120 min. The donor samples were diluted 1:10 in HBSS. From the receiver compartment, an amount of 100 μL was withdrawn after 45 and 120 min and replaced with fresh HBSS-HEPES, pH 7.4.
(§4) Upon completion of the study, all samples were quenched with 300 μL of acetonitrile and analyzed subsequently using UPLC/MS/MS. The permeability was determined as the appearance rate of the compound on the receiver side, in relation to donor concentration, according to eq 4 Papp=dQ/[(dt)(T)]×A/D where dQ/[(dt)(T)] is the slope of the permeation profile across the Caco-2 cell monolayers, A is the surface area of the Transwell insert (0.33 cm^2), and D is the concentration on the donor side. Following the permeability experiments, recovery from the donor and receiver compartments was calculated using eq 5 recovery(%)(0−120min)=CR120×VR+CR45×0.1+CD45×0.01+CD120×VD/D0×VD×100
For orientation: Caco-2 monolayers are a common model of the intestinal barrier.

Experiment in series [2]: as above
Type of series: in vitro ADME. Particulars: human, Caco-2, with 50 μM quinidine, 30 μM benzbromarone, 20 μM sulfasalazine; Figure 3A grouping; read-out: Passive Caco-2 cell permeability group (high, moderate or low). As to the method:
as §1, §2, §3, §4

A short description of series [3]: Equilibrium dialysis binding to HEK293 cell homogenate (fraction unbound). In kind it is in vitro ADME. Conditions: human, pH 7.4; fraction unbound in HEK293 cell homogenate, 10 × 10^6 cells/mL, 0.1 μM, 4 h, 37 °C; read-out: fu,hom. The procedure:
(§5) The unbound fraction of a selected series of PROTACs was determined through equilibrium dialysis against the cell homogenate. HEK293 cells (ATCC, Manassas, VA) were grown in Dulbecco’s modified Eagle’s medium (DMEM) supplemented with 10% fetal bovine serum (FBS) at 37 °C, 95% relative humidity, and 5% CO2. Cell pellets were harvested using 0.05% trypsin and centrifuged at 260g for 5 min. The cells were resuspended in Dulbecco’s phosphate buffer (DPBS), counted using a Luna II cell counter (Logos Biosystems, Anyang, South Korea) and centrifuged at 260g. The supernatant was discarded, and cell pellets were stored at −80 °C prior to cell homogenate preparation. On the day of the experiment, cell pellets were thawed and resuspended in Hank’s balanced salt solution (HBSS) buffered with 20 mM HEPES (pH 7.4) to a concentration of 10 × 10^6 cells/mL. The cell suspension was homogenized using ultrasonication for 10 s at 20% intensity while kept on ice.
(§6) Compound stability was assessed by adding the compound-spiked cell homogenate to an empty well in the dialysis cassette. At the end of the experiment, these concentrations were compared to identical control samples stored at 4 °C. Mass balance was calculated at the end of each experiment. Further, in all wells, two control compounds (atorvastatin and lopinavir) were included to ensure that the assay plate was functional. All compounds were tested in triplicate in one experiment. Compound 2 was only detected on the cell homogenate side, and thus, the concentration on the buffer side was set to half of the lower limit of quantification to allow calculation of an approximate cell homogenate binding.
(§7) Final samples were matrix matched by taking 1 part sample and 1 part blank cell homogenate or buffer. Proteins were precipitated using 1 part matrix matched sample and 3 parts acetonitrile supplemented with 0.3% formic acid (FA) and 5 nM verapamil (internal standard), and this was diluted 1:1 with Milli-Q prior to centrifugation at 2500g for 20 min. Compound concentrations in the supernatant were quantified using a reversed phase system with a Waters Acquity UPLC HSS T3 column (50 × 2.1 mm, 1.8 μm) in an Aquity UPLC connected to a Xevo TQ-XS mass spectrometer (Waters Corp., Milford, MA). The chromatographic run was done using solvent A (0.1% FA in Milli-Q) and solvent B (0.1% FA in acetonitrile Optima LC/MS grade (Fisher Scientific)) with isocratic conditions between 0 and 0.3 min (99.8% solvent A and 0.2% solvent B), a linear gradient between 0.3 and 1.3 min (from 0.2% to 95% solvent B), isocratic conditions between 1.3 and 1.8 min (95% solvent B), and equilibration back to start conditions between 1.8 and 2.3 min. Mass transitions, cone voltages, and collision energies can be found in Table S4.
Background: In equilibrium dialysis only unbound substance equilibrates across the membrane.

The test system of a further series is HEK293 cell homogenate. The description is as above. In kind it is in vitro ADME. Conditions: equilibrium dialysis, HEK293 cell homogenate, 0.1 μM. As to the method:
as §5, §6, §7

On to `N#Cc1ccc(O[C@H]2CC[C@H](NC(=O)c3ccc(N4CCC(CN5CCN(c6cc7c(cc6F)C(=O)N(C6CCC(=O)NC6=O)C7=O)CC5)CC4)nn3)CC2)cc1Cl` (some centres unmarked) [ARV-110], for which, in series [1], the tissue distribution entry is “widespread and extensive tissue distribution”.
`Cc1ncsc1-c1ccc(CNC(=O)[C@@H]2C[C@@H](O)CN2C(=O)[C@@H](NC(=O)COCCCCOc2ccc(-c3ccc(N4C(=S)N(c5ccc(C#N)c(C(F)(F)F)c5)C(=O)C4(C)C)cc3)cc2)C(C)(C)C)cc1` [Compound 2]: the “Papp Recovery (%) (0-120 min)” value in the series on Caco-2 monolayer is listed as 87%. The Papp A→B at 120 min, 10 μM in series [2] is less than 0.5 ×10⁻⁶ cm/s. Besides, the fraction unbound at 4 h, 0.1 μM in series [3] is 0.016. The “fu,hom mass balance” value in the series on HEK293 cell homogenate worked out at 109%.
For `Cc1ccc(C(=O)NCCCCc2cn(CCCC(=O)NCCCCNc3cccc4c3C(=O)N(C3CCC(=O)NC3=O)C4=O)nn2)cc1-n1c(C)cc(OCc2ccc(F)cc2F)c(Br)c1=O` (centres unmarked) [Compound 3] the same measures were 94%, less than 0.5 ×10⁻⁶ cm/s, 0.24 and 111%.
For the compound `CCCOc1cccc(Oc2cc3c(cc2NS(=O)(=O)c2cccc(C(=O)NCCOCCOCCOCC(=O)N[C@@H](C(=O)N4C[C@@H](O)C[C@@H]4C(=O)NCc4ccc(-c5scnc5C)cc4)C(C)(C)C)c2)n(C)c(=O)n3C)c1` [Compound 4], the “Papp Recovery (%) (0-120 min)” value with Caco-2 monolayer is 78%. In addition, the Papp A→B at 120 min, 10 μM in series [2] is 0.5 to 10 ×10⁻⁶ cm/s. Besides, in series [3], the fraction unbound at 4 h, 0.1 μM was determined as 0.2. In addition, the “fu,hom mass balance” value in the series with HEK293 cell homogenate was determined as 66%.
As to `CC(=O)c1c(C)c2cnc(Nc3ccc(N4CCN(CCOCCOCCOCCNC(=O)COc5cccc6c5C(=O)N([C@H]5CCC(=O)NC5=O)C6=O)CC4)cn3)nc2n(C2CCCC2)c1=O` [Compound 5], the “Papp Recovery (%) (0-120 min)” value with Caco-2 monolayer came to 84%. The Papp A→B at 120 min, 10 μM in series [2] lay in the range of 0.5 to 10 ×10⁻⁶ cm/s. In addition, the fraction unbound at 4 h, 0.1 μM in series [3] worked out at 0.396. Besides, the “fu,hom mass balance” value in the series with HEK293 cell homogenate is 76%.
